Measurements: PubChem BioAssay AID2060486 (Molecular Pharmacology Branch, DTP, NCI, 2025)

Tested on: IGROV1 complex spheroids (HUVEC, MSC), viability % test/control
Experiment: Anticancer human tumor IGROV1 cell line growth inhibition [GQUAD];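 further: spheroids exposed to compounds for 7 days before readout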;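 on viability, T/C: 100% = DMSO vehicle control viability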
Settings: for IC50: curve of first compound; for viability, T/C: stronger effect = lower value
Summary of the method: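 Multi-cell-type spheroids of tumor cells with HUVEC and mesenchymal stem cells, treated with drug combinations. Concentrations descend in half-log steps from near clinical Cmax, or from 10 microM where Cmax is unknown; viability read-out.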

[1] = second compound 0.0316 µM, first compound 0.0316 µM
[2] = second compound 0.0316 µM, first compound 0.1 µM
[3] = second compound 0.0316 µM, first compound 0.316 µM
[4] = second compound 0.0316 µM, first compound 1 µM
[5] = second compound 0.0316 µM, first compound 3.16 µM
[6] = second compound 0.0316 µM, first compound 10 µM
[7] = second compound 0.1 µM, first compound 0.0316 µM
[8] = second compound 0.1 µM, first compound 0.1 µM
[9] = second compound 0.1 µM, first compound 0.316 µM
[10] = second compound 0.1 µM, first compound 1 µM
[11] = second compound 0.1 µM, first compound 3.16 µM
[12] = second compound 0.1 µM, first compound 10 µM
[13] = second compound 0.316 µM, first compound 0.0316 µM
[14] = second compound 0.316 µM, first compound 0.1 µM
[15] = second compound 0.316 µM, first compound 0.316 µM
[16] = second compound 0.316 µM, first compound 1 µM
[17] = second compound 0.316 µM, first compound 3.16 µM
[18] = second compound 0.316 µM, first compound 10 µM
[19] = second compound 1 µM, first compound 0.0316 µM
[20] = second compound 1 µM, first compound 0.1 µM
[21] = second compound 1 µM, first compound 0.316 µM
[22] = second compound 1 µM, first compound 1 µM
[23] = second compound 1 µM, first compound 3.16 µM
[24] = second compound 1 µM, first compound 10 µM
[25] = second compound 3.16 µM, first compound 0.0316 µM
[26] = second compound 3.16 µM, first compound 0.1 µM
[27] = second compound 3.16 µM, first compound 0.316 µM
[28] = second compound 3.16 µM, first compound 1 µM
[29] = second compound 3.16 µM, first compound 3.16 µM
[30] = second compound 3.16 µM, first compound 10 µM
[31] = second compound 10 µM, first compound 0.0316 µM
[32] = second compound 10 µM, first compound 0.1 µM
[33] = second compound 10 µM, first compound 0.316 µM
[34] = second compound 10 µM, first compound 1 µM
[35] = second compound 10 µM, first compound 3.16 µM
[36] = second compound 10 µM, first compound 10 µM

Q: Which results are given for `CC1COCCN1c1cc(-c2ccnn2C)c2ccnc(-c3ccn[nH]3)c2n1` (stereo unspecified) + Cc1cnc(CNC(=O)c2c(=O)c3ccc(N4CCCN(C)CC4)nc3n3c2sc2ccccc23)cn1?
A: IC50 (second compound 0.0316 µM): < 0.0316 µM; IC50 (second compound 0.1 µM): < 0.0316 µM; IC50 (second compound 0.316 µM): < 0.0316 µM; IC50 (second compound 1 µM): < 0.0316 µM; IC50 (second compound 3.16 µM): < 0.0316 µM; IC50 (second compound 10 µM): < 0.0316 µM; viability, T/C [1]: 16.8%; viability, T/C [2]: 9.68%; viability, T/C [3]: 7.59%; viability, T/C [4]: 5.06%; viability, T/C [5]: 4.01%; viability, T/C [6]: 2.97%; viability, T/C [7]: 10.3%; viability, T/C [8]: 7.36%; viability, T/C [9]: 6.21%; viability, T/C [10]: 5.27%; viability, T/C [11]: 3.92%; viability, T/C [12]: 4.13%; viability, T/C [13]: 9%; viability, T/C [14]: 7.55%; viability, T/C [15]: 6.04%; viability, T/C [16]: 5.16%; viability, T/C [17]: 4.14%; viability, T/C [18]: 3.5%; viability, T/C [19]: 8.34%; viability, T/C [20]: 6.08%; viability, T/C [21]: 5.92%; viability, T/C [22]: 5.14%; viability, T/C [23]: 3.89%; viability, T/C [24]: 3%; viability, T/C [25]: 7.12%; viability, T/C [26]: 7.74%; viability, T/C [27]: 7.15%; viability, T/C [28]: 5.94%; viability, T/C [29]: 3.88%; viability, T/C [30]: 2.53%; viability, T/C [31]: 6.76%; viability, T/C [32]: 5.78%; viability, T/C [33]: 7.42%; viability, T/C [34]: 3.84%; viability, T/C [35]: 4.68%; viability, T/C [36]: 2.74%

Q: What does the source list for `CC1COCCN1c1cc(C2(S(C)(=N)=O)CC2)nc(-c2ccnc3[nH]ccc23)n1` (stereo unspecified) + Cc1cnc(CNC(=O)c2c(=O)c3ccc(N4CCCN(C)CC4)nc3n3c2sc2ccccc23)cn1?
A: IC50 (second compound 0.0316 µM): 0.205 µM; IC50 (second compound 0.1 µM): < 0.0316 µM; IC50 (second compound 0.316 µM): < 0.0316 µM; IC50 (second compound 1 µM): < 0.0316 µM; IC50 (second compound 3.16 µM): < 0.0316 µM; IC50 (second compound 10 µM): < 0.0316 µM; viability, T/C [1]: 71.7%; viability, T/C [2]: 62.6%; viability, T/C [3]: 43.3%; viability, T/C [4]: 15.1%; viability, T/C [5]: 31.4%; viability, T/C [6]: 5.8%; viability, T/C [7]: 35.4%; viability, T/C [8]: 36%; viability, T/C [9]: 16.5%; viability, T/C [10]: 10.8%; viability, T/C [11]: 12.8%; viability, T/C [12]: 4.75%; viability, T/C [13]: 26.8%; viability, T/C [14]: 20.6%; viability, T/C [15]: 13.7%; viability, T/C [16]: 7.83%; viability, T/C [17]: 13.6%; viability, T/C [18]: 4.61%; viability, T/C [19]: 13.3%; viability, T/C [20]: 17.7%; viability, T/C [21]: 13.3%; viability, T/C [22]: 8.94%; viability, T/C [23]: 11.2%; viability, T/C [24]: 6.04%; viability, T/C [25]: 11.9%; viability, T/C [26]: 10.2%; viability, T/C [27]: 10.9%; viability, T/C [28]: 8.09%; viability, T/C [29]: 10.3%; viability, T/C [30]: 5.89%; viability, T/C [31]: 9.84%; viability, T/C [32]: 9.08%; viability, T/C [33]: 9.32%; viability, T/C [34]: 8.94%; viability, T/C [35]: 9.55%; viability, T/C [36]: 4.74%

Q: With `COc1ccc([C@@H](O)c2cc(-c3ncnc4cc(N5CCOCC5)ccc34)c(F)cc2Cl)nn1` + Cc1cnc(CNC(=O)c2c(=O)c3ccc(N4CCCN(C)CC4)nc3n3c2sc2ccccc23)cn1 as the molecule, how does the IC50 (second compound 0.0316 µM) read?
A: The IC50 was 0.197 µM.

Q: What about the IC50 (second compound 0.1 µM) of the same molecule?
A: Its IC50 is under 0.0316 µM.

Q: What about the IC50 (second compound 0.316 µM) of the same molecule?
A: Its IC50 is under 0.0316 µM.

Q: What about the IC50 (second compound 1 µM) of the same molecule?
A: Its IC50 is under 0.0316 µM.

Q: What about the IC50 (second compound 3.16 µM) of the same molecule?
A: Its IC50 is under 0.0316 µM.

Q: And the IC50 (second compound 10 µM)?
A: The IC50 was under 0.0316 µM.

Q: And the viability, T/C [1]?
A: The viability, T/C was 62.4%.

Q: What about the viability, T/C [2] of the same molecule?
A: Its viability, T/C is 64.7%.

Q: And the viability, T/C [3]?
A: Its viability, T/C is 40.7%.

Q: What about the viability, T/C [4] of the same molecule?
A: The viability, T/C was 11.1%.

Q: What about the viability, T/C [5] of the same molecule?
A: The viability, T/C was 5.18%.

Q: What about the viability, T/C [6] of the same molecule?
A: Its viability, T/C is 5.46%.

Q: What about the viability, T/C [7] of the same molecule?
A: Its viability, T/C is 30.9%.

Q: What about the viability, T/C [8] of the same molecule?
A: The viability, T/C was 34.5%.

Q: What about the viability, T/C [9] of the same molecule?
A: The viability, T/C was 18.7%.

Q: And the viability, T/C [10]?
A: Its viability, T/C is 7.37%.

Q: And the viability, T/C [11]?
A: The viability, T/C was 4.79%.

Q: What about the viability, T/C [12] of the same molecule?
A: Its viability, T/C is 3.15%.

Q: What about the viability, T/C [13] of the same molecule?
A: The viability, T/C was 25.7%.

Q: And the viability, T/C [14]?
A: Its viability, T/C is 25.2%.

Q: And the viability, T/C [15]?
A: Its viability, T/C is 14.1%.

Q: And the viability, T/C [16]?
A: Its viability, T/C is 6.16%.

Q: And the viability, T/C [17]?
A: Its viability, T/C is 4.16%.

Q: What about the viability, T/C [18] of the same molecule?
A: The viability, T/C was 3.4%.

Q: What about the viability, T/C [19] of the same molecule?
A: Its viability, T/C is 19.7%.

Q: And the viability, T/C [20]?
A: Its viability, T/C is 17.8%.

Q: And the viability, T/C [21]?
A: The viability, T/C was 16.1%.

Q: What about the viability, T/C [22] of the same molecule?
A: The viability, T/C was 6.86%.

Q: And the viability, T/C [23]?
A: Its viability, T/C is 4.58%.

Q: And the viability, T/C [24]?
A: Its viability, T/C is 2.36%.

Q: And the viability, T/C [25]?
A: Its viability, T/C is 12%.

Q: And the viability, T/C [26]?
A: Its viability, T/C is 9.89%.

Q: And the viability, T/C [27]?
A: The viability, T/C was 8.1%.

Q: What about the viability, T/C [28] of the same molecule?
A: The viability, T/C was 4.31%.

Q: And the viability, T/C [29]?
A: The viability, T/C was 3.47%.

Q: What about the viability, T/C [30] of the same molecule?
A: The viability, T/C was 1.18%.

Q: What about the viability, T/C [31] of the same molecule?
A: Its viability, T/C is 9.31%.

Q: What about the viability, T/C [32] of the same molecule?
A: Its viability, T/C is 9.19%.

Q: What about the viability, T/C [33] of the same molecule?
A: The viability, T/C was 9.26%.

Q: What about the viability, T/C [34] of the same molecule?
A: The viability, T/C was 4.56%.

Q: And the viability, T/C [35]?
A: The viability, T/C was 2.94%.

Q: And the viability, T/C [36]?
A: Its viability, T/C is 1.32%.
